In patent US7691905B2, “Inhibition of melanogenesis and melanoma metastasis with p-aminobenzoic acid (PABA)” (New York University, priority 2002, dated 2010):

Tests used:
[1] = system: B16 melanoma cells; assay: B16 melanoma cell proliferation with ionizing radiation, direct cell counts; assay type: cell-based; conditions: 0.1 mg/ml PABA plus single fraction dose of 10 Gy, 3-day incubation
Method: (§1) Cell proliferation was determined by direct cell counts.
(Kinnaert E et al. (2000) Radiation Res 154:497-502.) Thus, blocking melanin synthesis or melanogenesis may cause melanoma cells to become much more sensitive to radiation therapy. To test the effect of PABA on the anti-proliferative effects of ionizing radiation, B16 melanoma cells grown in the presence or absence of 0.1 mg/ml PABA were treated with a single fraction dose of 10 Gy of ionizing radiation. Cell proliferation was monitored by direct cell counts over a 3-day incubation period.

[2] = system: B16 melanoma cells; assay: Intracellular melanin, colour of cell pellets; assay type: cell-based; conditions: 0.1 mg/ml PABA, three weeks of culture; untreated pellets black
Method: To determine whether PABA inhibits the intracellular synthesis of melanin in B16 cells, cells were grown in DMEM in the presence or absence of 0.1 mg/ml PABA. Following three weeks of culture, cells were collected by centrifugation. Cell pellets from cells cultured in the absence of PABA appeared black, as normal, indicating the presence of melanin.

[3] = system: B16 melanoma cells; assay: Melanin content of culture medium by absorbance at 405 nm and 660 nm; assay type: cell-based; conditions: PABA 0.5 mg/day and 1.0 mg/day, DMEM
Method: Melanin levels were determined by absorbance at 405 nm wavelength (A) and absorbance at 660 nm wavelength (B). To further analyze the effects of PABA on B16 melanoma cell melanin secretion, PABA was added at concentrations of 0.5 mg/day and 1.0 mg/day to B16 melanoma cells cultured in DMEM. Samples of the culture medium were then analyzed for melanin content by measuring absorbance at wavelengths of 405 nm and 660 nm.

[4] = system: B16F10 melanoma cells; assay: Chick embryo tumor growth assay, B16F10 melanoma, PABA and ionizing radiation; assay type: in vivo; conditions: tumor wet weight after 7 days
Method: The chick embryo tumor growth assay (Petitclerc E et al. (2000) J Biol Chem 275:8051-8061) was used to determine whether PABA enhances the effect of ionizing radiation to inhibit tumor growth in vivo. Four groups of chick embryos were studied. […] There were 5 to 10 chick embryos in each group.
The groups were created in the following manner. B16F10 melanoma cells were cultured for 14 days in growth medium in the absence of PABA or in the presence of PABA at a concentration of 100 μg/ml. The cells were harvested, washed, and resuspended in sterile PBS. The B16F10 melanoma cells were implanted on the CAMs of 10-day-old chick embryos, which were then incubated for at least 24 hours. The incubated chick embryos (some that were cultured in the absence of PABA and some that cultured in the presence of PABA) were treated with a single fraction dose of ionizing radiation (5.0 Gy). The embryos were incubated for 7 days and then the chick embryos of each group were sacrificed. The tumors were resected and tumor growth was assessed by measuring the wet weights of the resected tumors.

[5] = system: B16 melanoma cells; assay: Melanin secretion of B16 melanoma cells, colour of DMEM medium; assay type: cell-based; conditions: 0.1 mg/ml PABA in DMEM, seven days; unsupplemented medium turned brown
Method: The RPMI medium remained red due to the inhibition of melanin secretion. One of the major components in RPMI that is absent in DMEM is PABA. To assess the effect of PABA on melanin secretion from B16 cells, PABA was added to DMEM culture medium to achieve the same concentration as that found in the RPMI medium: 0.1 mg of PABA per milliliter of medium. Cells were grown in PABA-supplemented DMEM medium for seven days. The PABA-supplemented medium remained red, while the unsupplemented medium turned brown.

[6] = system: tyrosinase; assay: Tyrosinase activity, Dopachrome formation from L-DOPA (OD 475 nm); assay type: biochemical; conditions: L-DOPA 8.0 mM, 800 U purified tyrosinase
Method: Tyrosinase activity was assessed by measuring the formation of Dopachrome from L-DOPA using absorbance at 475 nm wavelength.
The effects of PABA on tyrosinase activity were evaluated by measuring the formation of Dopachrome using a previously published method. (Heidcamp W (1995), supra.) L-DOPA (8.0 mM) was resuspended in sodium citrate buffer and 800 U of purified tyrosinase was added. Tyrosinase activity was measured by monitoring the formation of Dopachrome by measuring the optical density of the mixture at a wavelength of 475 nm. To assess the effects of PABA, the reactions were performed in the presence or absence of PABA. As a control, reactions were performed in the presence of adenosine instead of PABA.

[7] = system: B16 melanoma cells; assay: Chick embryo tumor growth assay, B16 melanoma on CAM; assay type: in vivo; conditions: cells grown with 0.1 mg/ml PABA for 6 weeks, CAM of 10-day old chick embryos, 7 days
Method: The effect of PABA on solid tumor growth in vivo were evaluated using the chick embryo tumor growth assay. (Petitclerc E et al. (2000) J Biol Chem 275:8051-8061.) B16 melanoma cells were grown in the presence or absence of 0.1 mg/ml PABA for 6 weeks. Cells were harvested and 2.5×10^5 cells from each group were inoculated in the chorioallantoic membranes (CAM) of 10-day old chick embryos. The embryos were allowed to develop for a further seven days. At the end of the 7-day incubation period, the embryos were sacrificed and the tumors removed and wet weights determined. Tumors formed from B16 melanoma cells treated with PABA were, on average, 60% smaller than tumors derived from untreated B16 melanoma cells (FIG. 4).

[8] = system: human G-361 melanoma cells; assay: Human G-361 melanoma cell proliferation with ionizing radiation, direct cell counts; assay type: cell-based; conditions: 0.1 mg/ml PABA plus 20 Gy
Method: as §1
The radiation-enhancing effect of PABA on melanoma observed in B16 melanoma cells was confirmed in the pigmented human melanoma cell line G-361 (ATCC Number CRL-1424, (1978) Pediatr Res 12:485.) The human G-361 melanoma cells are more resistant to radiation than B16 melanoma cells and thus require a higher dose of ionizing radiation to inhibit growth, compared to B16 cells. Human G-361 melanoma cells were treated with 20 Gy of radiation, either alone or in combination with 0.1 mg/ml PABA, as described in example 7.

[9] = system: Lewis Lung Carcinoma (LLC) cells; assay: Lewis Lung Carcinoma tumor growth assay on chick embryo CAM; assay type: in vivo; conditions: cells grown with 0.1 mg/ml PABA for 3 weeks, 7 days
Method: The effect of PABA on the growth of carcinoma tumors was tested using the Lewis Lung Carcinoma (LLC) tumor growth assay. (Mauceri H J et al. (2002) Cancer Chemother Pharmacol 50:412-418.) LLC cells were grown in DMEM medium in the presence or absence of 0.1 mg/ml PABA for 3 weeks. Cells were harvested and 2×10^6 cells from each group were inoculated in the CAMs of 10-day old chick embryos. The embryos were allowed to develop for a further seven days. At the end of the 7-day incubation period, the embryos were sacrificed and the tumors removed and wet weights determined.

[10] = system: B16F10 melanoma cells; assay: In vivo xenograft study of PABA and radiation, B16F10 melanoma; parameters: species or system Balb/c nude mice; conditions: tumor volume after 15 days
Method: 1×10^6 B16F10 melanoma cells (cultured in the absence of PABA) were implanted subcutaneously into Balb/c nude mice. Intraperitoneal injections of PABA at a concentration of 50 mg/kg were started 3 days after implantation of the tumor cells and continued daily. Ten days following tumor cell implantation, mice were either not irradiated or were irradiated with 3 fractions of 3 Gy every other day for a total dose of 9 Gy.
After 15 days, the animals were sacrificed and the tumors were resected. The tumors were measured and their volumes were calculated.

[11] = system: B16 melanoma cells; assay: B16 melanoma experimental metastasis in chick embryo model; assay type: in vivo; conditions: cells grown with 0.1 mg/ml PABA for one to three weeks, injected into 12-day old chick embryos, 7-day incubation
Method: The number of melanoma metastases were measured by counting the number of metastatic lung tumor lesions present in lungs from sacrificed chick embryos. The effect of PABA on the aggressiveness and invasiveness of B16 melanoma was measured in a chick embryo model. (Brooks PC et al. (1994) Cell 79:1157-1164.) The effects of PABA on B16 experimental metastasis in vivo were evaluated to determine the role melanin synthesis plays in the aggressiveness and invasiveness of melanoma metastasis. B16 melanoma cells grown in the presence or absence of 0.1 mg/ml PABA for one to three weeks were injected into 12-day old chick embryos. At the end of a 7-day incubation period, the embryos were sacrificed and the number of metastatic lung tumor lesions were quantified.

[12] = system: Lewis Lung Carcinoma (LLC) cells; assay: Lewis Lung Carcinoma cell proliferation, direct cell counts; assay type: cell-based; conditions: 0.1 mg/ml PABA, DMEM, 48-hour incubation
Method: The anti-proliferative effect of PABA on carcinoma cells was tested on Lewis Lung Carcinoma (LLC) cells. (Young M R et al. (2003) Int J Cancer 103:38-44.) Cells were grown in DMEM medium in the presence or absence of 0.1 mg/ml PABA. Cell proliferation was monitored by direct cell counts over a 48-hour incubation period.

[13] = system: transplantable melanoma; conditions: hamsters; Zbytniewski et al. 1977; cited from earlier work
[14] = system: B16 melanoma cells; assay: B16 melanoma cell proliferation with PABA and/or Taxol, direct cell counts; assay type: cell-based; conditions: 10.0 μM paclitaxel and/or 0.1 mg/ml PABA, DMEM, 48-hour incubation
Method: as §1
The ability of PABA to enhance the anti-proliferative effect of the chemotherapeutic agent, Taxol, was tested in B16 melanoma cells. […] Cell proliferation was monitored by direct cell counts over a 48-hour incubation period.

## Nc1ccc(C(=O)O)cc1 [PABA, para-Aminobenzoic acid]
[1]
  cell proliferation after radiation, PABA vs no PABA: increased the anti-proliferative and cytotoxic effects
[2]
  colour of cell pellets (melanin accumulation): much lighter in color
[3]
  melanin secretion (absorbance of medium at 405 nm and 660 nm): time dependent and concentration dependent inhibition of melanin secretion
[4]; PABA 100 μg/ml plus single fraction ionizing radiation 5.0 Gy
  inhibition of tumor growth as compared to the control group: about 90%
[4]; PABA alone, cells cultured 14 days with 100 μg/ml PABA
  inhibition of tumor growth as compared to the control group: about 75%
[5]
  colour of culture medium (accumulation of secreted melanin): remained red
[6]
  tyrosinase activity (Dopachrome formation): dose dependent inhibition of Dopachrome formation
[7]
  tumor size (wet weight) reduction vs tumors from untreated cells: 60%
[8]
  cell proliferation, PABA in combination with radiation: essentially completely inhibited the proliferation
[9]
  tumor size (wet weight) vs tumors from untreated LLC cells: significantly larger
[10]; PABA 50 mg/kg i.p. daily plus 3 fractions of 3 Gy (9 Gy), P<0.002
  inhibition of tumor growth as compared to control: about 95%
[10]; PABA alone 50 mg/kg i.p. daily, P>0.100
  effect on tumor growth as compared to control: minimal effect on tumor growth
[11]
  number of metastatic lung tumor lesions: time dependent inhibition of B16 melanoma metastasis
[12]
  cell proliferation: increased the proliferation of LLC cells

## NCc1ccc(C(=O)O)cc1 [PAMBA, para-Aminomethylbenzoic acid]
[13]
  invasiveness of transplantable melanoma metastases: reducing the invasiveness of transplantable melanoma metastases in hamsters

## CC(=O)O[C@H]1C(=O)[C@@]2(C)[C@H]([C@H](OC(=O)c3ccccc3)[C@]3(O)C[C@H](OC(=O)[C@H](O)[C@@H](NC(=O)c4ccccc4)c4ccccc4)C(C)=C1C3(C)C)[C@]1(OC(C)=O)CO[C@@H]1C[C@@H]2O [Paclitaxel, paclitaxel]
[14]
  cell proliferation: significantly inhibited B16 melanoma cell proliferation
